Measurements as given in patent publication EP3173083A1, “IN VIVO ANTIANGIOGENIC EFFECT OF A PALLADIUM COMPLEX” (Istanbul Universitesi Rektorlugu, priority 2015, dated 2017).

Test system: CAM
Assay: chorioallantoic membrane (CAM) model of antiangiogenic effect
Type: in vivo, chicken
Details: for Score: average antiangiogenic score on CAM, evaluated by stereomicroscope 24 hours after pellet application; for antiangiogenic effect on CAM: effect class by scoring system of Table 1, 50 µg/pellet
Excerpt: In a study performed on the antiangiogenic effect of palladium complex of the invention, a method which is named chorioallantoic membrane (CAM) model is used. The model in question is a method developed by the embryologists more than 50 years ago, has a broad area of usage in embryonic researches (Auerbach, R., Lewis, R., Shinners, B., Kubai, L., Akhtar, N., 2003. Angiogenesis assays: a critical overview. Clin. Chem., 49(1): 32-40). Since 1956, the model is used in cancer and metastasis researches. The model has been started to be used in angiogenesis studies by Folkman in 1976. CAM is a non-embryo membrane which is formed by the merger of chorion and allantois as a result of an incubation of four-days. Although it is widely used in embryonic researches, it also has a broad range of usage in cancer and metastasis researches (Ribatti, D., 2010. The inefficacy of antiangiogenic therapies. J. Angiogenes. Res., 2:27. doi: 10.1186/2040-2384-2-27). […] The method is one of the most commonly used methods since it is quick, cheap and semi quantitative and enable scanning of many new agents (Cimpean, A.M., Ribatti, D., Raica, M., 2008. The chick embryo chorioallantoic membrane as a model to study tumor metastasis. Angiogenesis, 11(4): 311-319; Ribatti, D., 2008. Chick embryo chorioallantoic membrane as a useful tool to study angiogenesis. Int. Rev. Cell Mol. Biol., 270: 181-224).
The experiment Protocol which was reported in 1967 by D'Arcy and Howard and in 2002 by Bürgermeister and his colleagues was used (D'Arcy, P.F., Howard, E.M.,1967. A new anti-inflammatory test, utilizing the chorio-allantoic membrane of the chick embryo. Br. J. Pharmacol. Chemother., 29(3): 378-38; Bürgermeister, J., Paper, D.H., Vogl, H., Linhardt, R.J., Franz, G., 2002. LaPSvS1, a (1-->3)-beta-galactan sulfate and its effect on angiogenesis in vivo and in vitro. Carbohydr. Res., 337(16): 1459-1466).
The palladium complex, 5 mg/ml (50 µg /pellet), the standard control agents sodium dodecyl sulfate (SDS), cortisone, prednisone, (±)-thalidomide has been suspended in 2,5 % (w/v) agar at a final concentration of 50 µg /pellet by heating (60 °C<). Then, 10 µl is taken from this suspension and provided to become frozen pellet at room temperature by being applied on stainless steel cylinder supports with a diameter 5 mm. Pellets are applied onto the surface of CAM.
The procedure for CAM experiment is given in Figure 1 (Kiyan, H.T., 2010. Baz ? Hypericum Türlerinin Uçucu Yaǧ Bile ? imleri ve Antianjiyojenik Aktiviteleri, Yüksek Lisans Tezi, Anadolu Üniversitesi, Saǧl ? k Bilimleri Enstitüsü, Farmakognozi Program ? , 19p). Accordingly, fertilized chicken eggs to be used in experiment are incubated at 36,5 °C and in an incubator with 80% relative humidity (climatization cabin) at horizontal position for 72 hours before the experiment. In this period, eggs were carefully upturned time to time. At the end of the incubation period, firstly, from the bottom side of eggs with the help of the sterile injectors, 10-15 ml of albumin (egg white) is slowly removed and then from the top side of eggs (more upright and sharp part), shell and membrane are carefully removed with the help of the forceps (Figure-1, A). Living and developing embryo CAM immediately taken under protection with a stretch film, is waited again at 36,5 °C and in an incubator with 80% relative humidity for another 72 hours (Figure-1, B). When diameter of the CAM is detected to be approximately 2 cm, one piece of freshly prepared sample pellet for each egg is placed into the capillaries on the CAM (Figure-1, C). 15 pellets from each material is applied on CAM of an equal number of eggs and covered with stretch film. Before the evaluations, eggs were incubated for another 24 hours in such a way that pellets are placed in under specified conditions. […]

Row | Structure (SMILES) | Score (50 µg/pellet) | antiangiogenic effect on CAM | toxic or irritant effect on CAM (50 µg/pellet) | Irritation (%) (CAM, 50 µg/pellet, 24 hours after pellet application)
1 | O=C1CCC(N2C(=O)c3ccccc3C2=O)C(=O)N1 (racemic) [(±)-Thalidomide] | 0.9 ± 0.2 | strong |  | 
2 | CCCCCCCCCCCCOS(=O)(=O)[O-].[Na+] [Sodium dodecyl sulphate (SDS), Sodium dodecyl sulphate] | 0.1 ± 0.1 |  | irritant effect | 87 ± 5
3 | C[C@]12CCC(=O)C=C1CC[C@@H]1[C@@H]2C(=O)C[C@@]2(C)[C@H]1CC[C@]2(O)C(=O)CO [Cortisone] | 1.2 ± 0.2 | very strong |  | 
4 | O=C1c2ccccc2S(=O)(=O)[N]1[Pd-2]12[n+]3ccccc3-c3cccc([n+]31)-c1cccc[n+]12 [Palladium complex, [Pd(sac)(terpy)] (sac)•4H2O (sac=saccharinate and terpy=2,2':6',2"-terpyridine)]] |  | very strong | no toxic or irritant effect | 
5 | C[C@]12C=CC(=O)C=C1CC[C@@H]1[C@@H]2C(=O)C[C@@]2(C)[C@H]1CC[C@]2(O)C(=O)CO [Prednisone] | 0.9 ± 0.7 | strong |  | 
